# Measured values published in patent US20260115194A1, “NEW TREATMENTS FOR PAIN” (Sevenless Therapeutics Limited, priority 2023, published 2026).
# Target: T1, KRAS WT/SOS1 (Homo sapiens, UniProt Q07889)
# T1 sequence (Q07889 1-1333): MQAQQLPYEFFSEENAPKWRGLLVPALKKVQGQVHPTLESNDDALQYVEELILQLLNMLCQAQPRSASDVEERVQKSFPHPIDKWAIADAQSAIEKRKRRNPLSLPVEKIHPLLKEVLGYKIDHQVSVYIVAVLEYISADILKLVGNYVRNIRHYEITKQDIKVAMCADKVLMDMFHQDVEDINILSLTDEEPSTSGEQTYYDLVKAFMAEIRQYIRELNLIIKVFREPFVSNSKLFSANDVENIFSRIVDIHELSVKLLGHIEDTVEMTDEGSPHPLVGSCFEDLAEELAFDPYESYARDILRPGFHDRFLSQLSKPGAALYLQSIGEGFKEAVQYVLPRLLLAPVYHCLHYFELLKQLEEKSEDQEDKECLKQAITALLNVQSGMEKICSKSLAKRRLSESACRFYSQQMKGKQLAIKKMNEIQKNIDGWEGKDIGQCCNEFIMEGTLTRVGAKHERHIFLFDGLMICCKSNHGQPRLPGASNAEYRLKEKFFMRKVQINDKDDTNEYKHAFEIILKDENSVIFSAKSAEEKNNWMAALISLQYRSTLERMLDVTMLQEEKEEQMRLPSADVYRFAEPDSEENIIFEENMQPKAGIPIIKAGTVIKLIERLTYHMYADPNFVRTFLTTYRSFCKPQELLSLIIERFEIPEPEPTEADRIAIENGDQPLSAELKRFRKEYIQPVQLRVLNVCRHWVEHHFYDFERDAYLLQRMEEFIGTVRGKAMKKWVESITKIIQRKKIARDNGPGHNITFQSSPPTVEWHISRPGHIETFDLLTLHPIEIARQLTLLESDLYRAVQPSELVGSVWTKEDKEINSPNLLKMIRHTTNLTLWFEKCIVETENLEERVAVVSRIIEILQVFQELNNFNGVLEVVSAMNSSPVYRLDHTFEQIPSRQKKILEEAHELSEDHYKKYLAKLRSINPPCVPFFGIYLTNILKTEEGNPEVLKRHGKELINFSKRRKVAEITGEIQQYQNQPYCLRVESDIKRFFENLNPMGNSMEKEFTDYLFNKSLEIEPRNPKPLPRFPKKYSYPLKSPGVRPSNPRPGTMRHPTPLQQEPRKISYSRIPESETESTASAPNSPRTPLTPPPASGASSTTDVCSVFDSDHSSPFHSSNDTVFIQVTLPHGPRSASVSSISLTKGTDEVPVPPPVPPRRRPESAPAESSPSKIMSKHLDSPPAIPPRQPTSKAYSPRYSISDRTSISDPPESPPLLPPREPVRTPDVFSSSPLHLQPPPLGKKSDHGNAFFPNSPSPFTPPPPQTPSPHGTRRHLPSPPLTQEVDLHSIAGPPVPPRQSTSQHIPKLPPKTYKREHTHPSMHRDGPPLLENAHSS
# Experiment: HTRF KRAS WT/SOS1 PPI kit (Cisbio) screen for SOS1 inhibitors
# Format: binding
# Conditions: 10-point 1/2-log dilution from 10 μM, 60 minutes at room temperature
# Method: Compounds were screened using an HTRF KRAS WT/SOS1 PPI kit provided by Cis bio, according to the manufacturer's instructions, with the modifications described below. All reagents were allowed to equilibrate to room temperature and diluted to working stock in Binding Domain Detection buffer (BDD buffer). Stock solutions were prepared by adding 1 part Tag1-KRAS WT/GTP to 1 part Tag2-SOS1 and 1 part BDD. Separately, 1 part Anti-Tag1 XL665 antibody premix was added to Anti-Tag2 Tb cryptate antibody premix. BI-3406 (Selleck Chemicals) was used as a standard, solubilised to 10 mM in DMSO. Test compounds were also solubilised to 10 mM in DMSO. […] Per well, 6 μL of Tag1-KRAS WT/GTP premix, 4 ul Tag2-SOS1 premix and 10 μl of Anti-Tag1 XL665 and Anti-Tag2 Tb cryptate antibodies were then added using a E1-ClipTip™ Electronic Adjustable Multichannel Equalizer Pipette. After the final addition, the plate was covered and placed in the benchtop incubator set at 22° C. The reaction was incubated for 60 minutes at room temperature, prior to reading using a Pherastar FSX plate reader.
compound,measurement,value
"Cc1nc(N[C@H](C)c2cccc(C(F)F)c2F)c2cc(S(=O)(=O)N3CC4CC(C3)O4)ncc2n1 [Example 18, 6-((6-oxa-3-azabicyclo [3.1.1]heptan-3-yl)sulfonyl)-N—((R)-1-(3-(difluoromethyl)-2-fluorophenyl)ethyl)-2-methylpyrido[3,4-d] pyrimidin-4-amine]",IC50,< 100 nM
